# Like-named read-outs stand apart in the source and are kept apart here.
# Experiments:
# [1] = test system: MCF-7 (human breast cancer cells); experiment: MTT cancer cell growth inhibition; format: cell-based; conditions: Homo sapiens, MCF7, 72 h, 72 hours incubation, read-out: GI50 MCF
# From the text: (§1) MTT assay principle is yellow MTT can penetrate membrane into the cell, succinic dehydrogenase of the mitochondria in living cells can make exogenous MTT reduction of insoluble in water of blue-violet acicular formazan for crystallization and deposition in the cell, crystallization can be dissolved dimethyl sulfoxide (DMSO) solution, detected its absorbance at 490 nm/570 nm wavelength by enzyme-linked immunosorbent assay, which can reflect the number of cells.
# (§2) Using DMEM+10% FBS culture medium or using 1640+10% FBS culture, respectively.
# (§3) a) Cells were seeded in 96-well plates with the inoculation of 1500/well, 190 μl/hole, 37° C., 5% of CO2 incubator overnight;
# (§4) b) The next day each well was added 10 μl of different drugs. The final concentration of drug was 10^−5˜10^−10M, three parallel holes; 37° C., 5% CO2 culture incubator for 72 hours incubation;
# (§5) c) Per well was added 20 μl 5 mg/ml of MTT, 37° C., 5% CO2 culture incubator for 4 hours incubation;
# (§6) d) The supernatant was discarded. Each well was added 100 μl of DMSO and oscillation;
# (§7) e) 570 nm readings. Calculate cell viability. GI50 calculation based on the results.
# [2] = test system: MOLT-4 (human acute lymphoblastic leukemia cells); experiment: MTT cancer cell growth inhibition; format: cell-based; conditions: Homo sapiens, MOLT-4, 72 h, MTT, 72 hours incubation, read-out: GI50 Mol
# From the text: as §1, §2, §3, §4, §5, §6, §7
# [3] = test system: Huh-7 (human hepatoma cells); experiment: MTT cancer cell growth inhibition; format: cell-based; conditions: Homo sapiens, Huh-7, 72 h, MTT, 72 hours incubation, Huh-7 cells; read-out: GI50 Huh-7
# From the text: as §1, §2, §3, §4, §5, §6, §7
# [4] = test system: SGC-7901 (human gastric cancer cells); experiment: MTT cancer cell growth inhibition; format: cell-based; conditions: Homo sapiens, SGC-7901, 72 h, MTT, 72 hours incubation, SGC-7901 cells; read-out: GI50 SGC-7901
# From the text: as §1, §2, §3, §4, §5, §6, §7
# [5] = test system: HCC827 (human non-small cell lung cancer cells); experiment: MTT cancer cell growth inhibition; format: cell-based; conditions: Homo sapiens, HCC827, 72 h, MTT, 72 hours incubation, HCC827 cells; read-out: GI50 HCC827
# From the text: as §1, §2, §3, §4, §5, §6, §7
# [6] = test system: HT1080 (human fibrosarcoma cells); experiment: MTT cancer cell growth inhibition; format: cell-based; conditions: Homo sapiens, HT-1080, 72 h, MTT, 72 hours incubation, read-out: GI50 HT1
# From the text: as §1, §2, §3, §4, §5, §6, §7
# [7] = test system: lncap (prostate cancer cells); experiment: MTT cancer cell growth inhibition; format: cell-based; conditions: Homo sapiens, LNCaP, 72 h, MTT, 72 hours incubation, read-out: GI50 lnca
# From the text: as §1, §2, §3, §4, §5, §6, §7
# [8] = test system: PANC-1 (Pac-1, human pancreatic cancer cells); experiment: MTT cancer cell growth inhibition; format: cell-based; conditions: Homo sapiens, PANC-1, 72 h, MTT, 72 hours incubation, read-out: GI50 PAN
# From the text: as §1, §2, §3, §4, §5, §6, §7
# [9] = test system: MDA-MB-231 (breast cancer cells); experiment: MTT cancer cell growth inhibition; format: cell-based; conditions: Homo sapiens, MDA-MB-231, 72 h, read-out: GI50 MDA-MB-231, MTT, 72 hours incubation, MDA-MB-231 cells
# From the text: as §1, §2, §3, §4, §5, §6, §7
# [10] = test system: K562 (human leukemia cells); experiment: MTT cancer cell growth inhibition; format: cell-based; conditions: Homo sapiens, K562, 72 h, MTT, 72 hours incubation, K562 cells; read-out: GI50 K562
# From the text: as §1, §2, §3, §4, §5, §6, §7
# [11] = test system: BGC-823 (human gastric cancer cells); experiment: MTT cancer cell growth inhibition; format: cell-based; conditions: Homo sapiens, BGC-823, 72 h, MTT, 72 hours incubation, read-out: GI50 BG
# From the text: as §1, §2, §3, §4, §5, §6, §7
# [12] = test system: KBM5-T315I (human chronic myelogenous leukemia); experiment: MTT cancer cell growth inhibition; format: cell-based; conditions: Homo sapiens, 72 h, MTT, 72 hours incubation, KBM5-T315I cells; read-out: GI50 KBM5-T315I
# From the text: as §1, §2, §3, §4, §5, §6, §7
# [13] = test system: Bel-7402 (human hepatoma cells); experiment: MTT cancer cell growth inhibition; format: cell-based; conditions: Homo sapiens, Bel-7402, 72 h, MTT, 72 hours incubation, Bel-7402 cells; read-out: GI50 Bel-7402
# From the text: as §1, §2, §3, §4, §5, §6, §7
# [14] = test system: KBM-5 (human chronic myelogenous leukemia); experiment: MTT cancer cell growth inhibition; format: cell-based; conditions: Homo sapiens, KBM5, 72 h, MTT, 72 hours incubation, KBM-5 cells; read-out: GI50 KBM-5
# From the text: as §1, §2, §3, §4, §5, §6, §7
# [15] = test system: H1975 (non-small cell lung adenocarcinoma); experiment: MTT cancer cell growth inhibition; format: cell-based; conditions: Homo sapiens, NCI-H1975, 72 h, MTT, 72 hours incubation, H1975 cells; read-out: GI50 H1975
# From the text: as §1, §2, §3, §4, §5, §6, §7
# [16] = test system: A549 (human lung cancer cells); experiment: MTT cancer cell growth inhibition; format: cell-based; conditions: Homo sapiens, A549, 72 h, MTT, 72 hours incubation, read-out: GI50 A54
# From the text: as §1, §2, §3, §4, §5, §6, §7
# [17] = test system: U937 (human leukemia cells); experiment: MTT cancer cell growth inhibition; format: cell-based; conditions: Homo sapiens, U-937, 72 h, MTT, 72 hours incubation, read-out: GI50 U93
# From the text: as §1, §2, §3, §4, §5, §6, §7
# [18] = test system: Hela (human cervical cancer cells); experiment: MTT cancer cell growth inhibition; format: cell-based; conditions: Homo sapiens, HeLa, 72 h, MTT, 72 hours incubation, read-out: GI50 Hela
# From the text: as §1, §2, §3, §4, §5, §6, §7
# [19] = test system: DU145 (human prostate cancer cells); experiment: MTT cancer cell growth inhibition; format: cell-based; conditions: Homo sapiens, DU-145, 72 h, MTT, 72 hours incubation, read-out: GI50 Du1
# From the text: as §1, §2, §3, §4, §5, §6, §7
# [20] = test system: N-87 (human gastric cancer cells); experiment: MTT cancer cell growth inhibition; format: cell-based; conditions: Homo sapiens, 72 h, MTT, 72 hours incubation, N-87 cells; read-out: GI50 N-87
# From the text: as §1, §2, §3, §4, §5, §6, §7
# HDAC7 = target: T1, HDAC7 (Homo sapiens, UniProt Q8WUI4); experiment: HDAC biochemical activity measurement (fluorescent substrate deacetylation);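 also: fluorogenic deacetylation assay using acetyl-lysine substrate at 20 µM, enzyme and compound incubated 30 min at 37 °C, then developer added, fluorescence read at 360/460 nm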; conditions: HDAC7; 37° C. 30 minutes
# T1 sequence (Q8WUI4 1-952): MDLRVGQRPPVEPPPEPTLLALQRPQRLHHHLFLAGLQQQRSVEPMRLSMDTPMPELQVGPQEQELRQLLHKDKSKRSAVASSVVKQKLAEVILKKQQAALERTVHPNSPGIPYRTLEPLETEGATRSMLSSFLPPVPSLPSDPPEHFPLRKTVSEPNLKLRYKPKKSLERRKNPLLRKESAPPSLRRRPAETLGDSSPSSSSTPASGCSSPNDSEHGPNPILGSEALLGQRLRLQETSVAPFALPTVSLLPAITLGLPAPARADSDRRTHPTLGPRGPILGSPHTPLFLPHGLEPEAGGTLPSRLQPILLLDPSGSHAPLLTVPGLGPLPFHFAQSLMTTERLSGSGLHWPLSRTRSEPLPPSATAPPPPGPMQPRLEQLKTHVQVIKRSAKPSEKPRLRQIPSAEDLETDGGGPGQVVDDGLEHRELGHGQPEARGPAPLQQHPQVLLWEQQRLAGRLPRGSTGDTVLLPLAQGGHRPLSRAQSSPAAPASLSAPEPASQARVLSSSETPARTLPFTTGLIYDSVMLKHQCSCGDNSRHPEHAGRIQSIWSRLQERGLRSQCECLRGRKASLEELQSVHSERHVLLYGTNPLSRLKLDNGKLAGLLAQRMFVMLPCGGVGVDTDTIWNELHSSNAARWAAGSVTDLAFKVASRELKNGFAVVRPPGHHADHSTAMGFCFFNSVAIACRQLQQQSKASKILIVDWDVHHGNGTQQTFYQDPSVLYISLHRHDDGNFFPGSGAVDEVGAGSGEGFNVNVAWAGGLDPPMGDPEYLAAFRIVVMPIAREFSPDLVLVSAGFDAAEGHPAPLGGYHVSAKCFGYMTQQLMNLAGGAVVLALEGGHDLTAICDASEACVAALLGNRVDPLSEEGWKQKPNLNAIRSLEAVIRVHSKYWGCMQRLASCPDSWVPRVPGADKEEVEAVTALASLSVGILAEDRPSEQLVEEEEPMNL
GI50 ([1]; MCF-7 cells) [nM],GI50 ([2]; MOLT-4 cells) [nM],GI50 [3] [nM],GI50 [4] [nM],GI50 [5] [nM],GI50 ([6]; HT1080 cells) [nM],GI50 ([7]; lncap cells) [nM],GI50 ([8]; PANC-1 cells) [nM],GI50 [9] [nM],GI50 [10] [nM],GI50 ([11]; BGC-823 cells) [nM],GI50 [12] [nM],GI50 [13] [nM],GI50 [14] [nM],GI50 [15] [nM],GI50 ([16]; A549 cells) [nM],GI50 ([17]; U937 cells) [nM],GI50 ([18]; Hela cells) [nM],GI50 [20] [nM],IC50 HDAC7 (HDAC7),SMILES,further results
20,60,17,53,45,70,20,10,51,23,50,55,72,49,35,20,40,70,19,no activity,C/C=C1\NC(=O)c2cc(SC)cc(n2)CNC(=O)C[C@@H](/C=C/CCS)OC(=O)[C@H](C(C)C)NC1=O [Compound 227],GI50 ([19]; DU145 cells): 60 nM
,,31,69,88,,,,24,42,,22,16,19,58,,,,31,no activity,C/C=C1\NC(=O)c2ncc(F)c(n2)CNC(=O)C[C@@H](/C=C/CCSC(C)=O)OC(=O)[C@H](C)NC1=O [Compound 99],GI50 [1]: 10 nM; GI50 [2]: 20 nM; GI50 [6]: 70 nM; GI50 [7]: 20 nM; GI50 [8]: 70 nM; GI50 [11]: 60 nM; GI50 [16]: 60 nM; GI50 [17]: 60 nM; GI50 [18]: 60 nM; GI50 [19]: 40 nM
10,50,31,31,38,30,30,60,32,21,20,38,31,34,31,80,10,50,28,no activity,C/C=C1\NC(=O)c2ccc(SCCC)c(n2)CNC(=O)C[C@@H](/C=C/CCSC(=O)CCCCCCC)OC(=O)[C@H](CC)NC1=O [Compound 176],GI50 ([19]; DU145 cells): 50 nM
